Experimental data reported in patent publication US20150307938A1, “METHOD TO IDENTIFY A NOVEL CLASS OF IMMUNOLOGIC ADJUVANTS” (Lancell, L.L.C., priority 2011, published 2015).
Structures can show the parent of a compound that is named as a salt.

Tests used:
[1] = test system: Fluzone; parameters: species or system C57BL/6 mice; conditions: mouse, in vivo
[2] = test system: skin; test: Affymetrix microarray of skin, DBP-4 hr and analogs vs. untreated; gene selection by log-2 fold change, Wilcoxon, Kendall tau (Tables 8, 9); type: in vivo, mouse
[3] = test system: Murine Skin Dendritic Cells; test: Activation of murine skin dendritic cells by DBP vs. DBlT (DC per lymph node, CD86); type: in vivo; conditions: topical treatment

CC12CCC(CC1=O)C2(C)C (stereo not shown) [camphor]
HAI titer / adjuvant effect with the same dose of Fluzone [1]: improved

CCN(CC)C(=O)c1cccc(C)c1 [DEET, N,N-diethyl-toluamide]
Log2 Expression Level ([2]; gene #1 of Table 8): 6.74 | Log2 Expression Level ([2]; gene #2 of Table 8): 6.44 | Log2 Expression Level ([2]; gene #3 of Table 8): 9.66 | Log2 Expression Level ([2]; gene #4 of Table 8): 9.66 | Log2 Expression Level ([2]; gene #5 of Table 8): 8.20 | Log2 Expression Level ([2]; gene #6 of Table 8): 7.42 | Log2 Expression Level ([2]; gene #7 of Table 8): 6.76 | Log2 Expression Level ([2]; gene #8 of Table 8): 7.42 | Log2 Expression Level ([2]; gene #9 of Table 8): 7.42 | Log2 Expression Level ([2]; gene #10 of Table 8): 7.42 | Log2 Expression Level ([2]; gene #11 of Table 8): 6.76 | Log2 Expression Level ([2]; gene #12 of Table 8): 6.76 | Log2 Expression Level ([2]; gene #13 of Table 8): 6.76 | Log2 Expression Level ([2]; gene #14 of Table 8): 5.31 | Log2 Expression Level ([2]; gene #15 of Table 8): 5.31 | Log2 Expression Level ([2]; gene #16 of Table 8): 7.68 | Log2 Expression Level ([2]; gene #17 of Table 8): 9.60 | Log2 Expression Level ([2]; gene #18 of Table 8): 9.60 | Log2 Expression Level ([2]; gene #19 of Table 8): 10.04 | Log2 Expression Level ([2]; gene #20 of Table 8): 11.87 | Log2 Expression Level ([2]; gene #21 of Table 8): 9.61 | Log2 Expression Level ([2]; gene #22 of Table 8): 8.47 | Log2 Expression Level ([2]; gene #23 of Table 8): 7.75 | Log2 Expression Level ([2]; gene #24 of Table 8): 8.21 | Log2 Expression Level ([2]; gene #25 of Table 8): 8.21 | Log2 Expression Level ([2]; gene #26 of Table 8): 8.83 | Log2 Expression Level ([2]; gene #27 of Table 8): 8.83 | Log2 Expression Level ([2]; gene #28 of Table 8): 8.83 | Log2 Expression Level ([2]; gene #29 of Table 8): 7.20 | Log2 Expression Level ([2]; gene #30 of Table 8): 9.06 | Log2 Expression Level ([2]; gene #31 of Table 8): 9.06 | Log2 Expression Level ([2]; gene #32 of Table 8): 9.06 | Log2 Expression Level ([2]; gene #33 of Table 8): 6.10 | Log2 Expression Level ([2]; gene #34 of Table 8): 7.43 | Log2 Expression Level ([2]; gene #35 of Table 8): 7.43 | Log2 Expression Level ([2]; gene #36 of Table 8): 9.66 | Log2 Expression Level ([2]; gene #37 of Table 8): 9.66 | Log2 Expression Level ([2]; gene #38 of Table 8): 9.66 | Log2 Expression Level ([2]; gene #39 of Table 8): 8.11 | Log2 Expression Level ([2]; gene #40 of Table 8): 8.22 | Log2 Expression Level ([2]; gene #41 of Table 8): 8.43 | Log2 Expression Level ([2]; gene #42 of Table 8): 7.97 | Log2 Expression Level ([2]; gene #43 of Table 8): 7.97 | Log2 Expression Level ([2]; gene #44 of Table 8): 8.43 | Log2 Expression Level ([2]; gene #45 of Table 8): 7.97 | Log2 Expression Level ([2]; gene #46 of Table 8): 8.43 | Log2 Expression Level ([2]; gene #47 of Table 8): 9.23 | Log2 Expression Level ([2]; gene #48 of Table 8): 9.23 | Log2 Expression Level ([2]; gene #49 of Table 8): 9.23 | Log2 Expression Level ([2]; gene #50 of Table 8): 10.17 | Log2 Expression Level ([2]; gene #51 of Table 8): 8.15 | Log2 Expression Level ([2]; gene #52 of Table 8): 10.64 | Log2 Expression Level ([2]; gene #53 of Table 8): 9.22 | Log2 Expression Level ([2]; gene #54 of Table 8): 10.01 | Log2 Expression Level ([2]; gene #55 of Table 8): 8.18 | Log2 Expression Level ([2]; gene #56 of Table 8): 10.41 | Log2 Expression Level ([2]; gene #57 of Table 8): 9.06 | Log2 Expression Level ([2]; gene #58 of Table 8): 9.46 | Log2 Expression Level ([2]; gene #59 of Table 8): 8.46 | Log2 Expression Level ([2]; gene #60 of Table 8): 7.24 | Log2 Expression Level ([2]; gene #61 of Table 8): 12.16 | Log2 Expression Level ([2]; gene #62 of Table 8): 8.52 | Log2 Expression Level ([2]; gene #63 of Table 8): 11.76 | Log2 Expression Level ([2]; gene #64 of Table 8): 11.40 | Log2 Expression Level ([2]; gene #65 of Table 8): 8.25 | Log2 Expression Level ([2]; gene #66 of Table 8): 9.07 | Log2 Expression Level ([2]; gene #67 of Table 8): 5.71 | Log2 Expression Level ([2]; gene #68 of Table 8): 10.87 | Log2 Expression Level ([2]; gene #69 of Table 8): 7.06 | Log2 Expression Level ([2]; gene #70 of Table 8): 5.72 | Log2 Expression Level ([2]; gene #71 of Table 8): 7.84 | Log2 Expression Level ([2]; gene #72 of Table 8): 9.65 | Log2 Expression Level ([2]; gene #73 of Table 8): 8.88 | Log2 Expression Level ([2]; gene #74 of Table 8): 7.48 | Log2 Expression Level ([2]; gene #75 of Table 8): 10.04 | Log2 Expression Level ([2]; gene #76 of Table 8): 5.76 | Log2 Expression Level ([2]; gene #77 of Table 8): 9.62 | Log2 Expression Level ([2]; gene #78 of Table 8): 9.85 | Log2 Expression Level ([2]; gene #79 of Table 8): 8.03 | Log2 Expression Level ([2]; gene #80 of Table 8): 13.18 | Log2 Expression Level ([2]; gene #81 of Table 8): 6.94 | Log2 Expression Level ([2]; gene #82 of Table 8): 6.28 | Log2 Expression Level ([2]; gene #83 of Table 8): 8.09 | Log2 Expression Level ([2]; gene #84 of Table 8): 8.70 | Log2 Expression Level ([2]; gene #85 of Table 8): 9.57 | Log2 Expression Level ([2]; gene #86 of Table 8): 8.02 | Log2 Expression Level ([2]; gene #87 of Table 8): 11.32 | Log2 Expression Level ([2]; gene #88 of Table 8): 10.03 | Log2 Expression Level ([2]; gene #89 of Table 8): 6.25 | Log2 Expression Level ([2]; gene #90 of Table 8): 11.13 | Log2 Expression Level ([2]; gene #91 of Table 8): 9.01 | Log2 Expression Level ([2]; gene #92 of Table 8): 7.14 | Log2 Expression Level ([2]; gene #93 of Table 8): 10.13 | Log2 Expression Level ([2]; gene #94 of Table 8): 9.19 | Log2 Expression Level ([2]; gene #95 of Table 8): 7.20 | Log2 Expression Level ([2]; gene #96 of Table 8): 9.02 | Log2 Expression Level ([2]; gene #97 of Table 8): 5.86 | Log2 Expression Level ([2]; gene #98 of Table 8): 6.82 | Log2 Expression Level ([2]; gene #99 of Table 8): 10.05 | Log2 Expression Level ([2]; gene #100 of Table 8): 8.86

CCCCOC(=O)[C@H](O)[C@@H](O)C(=O)OCCCC [DBlT, dibutyl L tartrate]
HAI titer / adjuvant effect with the same dose of Fluzone [1]: almost but not quite as good as DBT had | MFI CD86 [3]: 634 (126)
